Experimental data from US20190030053A1, “COMPOSITION FOR INCREASING EXPRESSION OF PGC-1alpha” (BENEBIOSIS CO., LTD., priority 2016, published 2019).
“Also recorded” adds a separate entry of the source.

What was measured:
[1] = system: mouse aortic smooth muscle cells (MASMs); test: Mitochondrial superoxide production (MitoSOX Red) in MASMs of arteriosclerosis model mice; format: cell-based; conditions: MASMs from PGC-1α+/+ApoE−/− mice; SL added to culture liquid
Procedure: For the measurement of mitochondrial superoxide production, mitochondrial ROS was measured using MitoSOX Red (mitochondrial superoxide fluorescent marker). MASMs were extracted, and incubated with MitoSOX (4 μM) in the dark room at 37° C. for 20 minutes. The MitoSOX fluorescence was quantified by the cell fluorescence intensity read using a fluorescent plate reader (480 nm excitation/580 nm emission) (FIG. 19b).
In FIGS. 19a and 19b, MASMs were extracted from the model mouse (PGC-1α^+/+ApoE^−/−) control group, and the SL (3′-SL & 6′-SL) compositions were added to the culture liquid to conduct comparison.
FIGS. 19a and 19b show the measurement results of intercellular H2O2 (ROS values) (FIG. 19a) and the measurement results of mitochondrial superoxide production (FIG. 19b). MASMs were extracted from the model mice (PGC-1α^+/+ApoE^−/−), and the SL (3′-SL & 6′-SL) compositions were added to the culture liquid to conduct comparison.

[2] = system: mouse models with temporary and permanent middle cerebral artery (MCA) occlusion; test: Ischemic volume (TTC) in stroke models with middle cerebral artery occlusion; format: in vivo; conditions: intraperitoneal
Text: In order to investigate the changes in ischemic volume and modified limb placing test (MLPT) score by treatment with SL (3′-SL & 6′-SL) compositions in stroke models, 4-week-old mice were purchased from Central Lab Animal (Korea). Water was freely accessible, and a commercially available pellet feed (Dooyeul Biotech, Korea) was given for one week. Stroke models involving temporary and permanent middle cerebral artery (MCA) occlusion and intracerebral hemorrhage (ICH) were fabricated using 6-week-old male Sprague-Dawley rats (weight, average 185.3±15.8 g) and male BALB/c mice weight, average 24.6±3.8 g). For the comparison of SL administration effects, the mice, one hour after stroke induction, were randomly grouped into three different intraperitoneal administration groups (8 animals per group, 24 animals in total) below, and then intraperitoneally administered: • Control group: Lysis buffer control group medium intraperitoneal administration group (8 animals) • 3′-SL treatment: 3′-SL lysis buffer medium intraperitoneal administration group (8 animals) • 6′-SL treatment: 6′-SL lysis buffer medium intraperitoneal administration group (8 animals)
Local cerebral infarction mouse models were used as additional cerebral infarction models, and in these models, SL (3′-SL & 6′-SL) was intraperitoneally administered 3 hours after cerebral infarction introduction: • Control group: Lysis buffer control group medium intraperitoneal administration group (8 animals) • 3′-SL treatment: 3′-SL lysis buffer medium intraperitoneal administration group (8 animals) • 6′-SL treatment: 6′-SL lysis buffer medium intraperitoneal administration group (8 animals)
The ischemic volume measurement was conducted by measuring the volume of the ischemic area (infarct and boundary region thereof) using […] (TTC), 24 hours after ischemic induction, as follows. After brain extraction, the frontal tip was cut into 1 mm thickness, and immersed in 2% TCC solution. The stained slices were then fixed with PBS-4% paraformaldehyde, and the ischemic site and hemispherical region of each slice were measured using an image analysis system. The values due to brain edema were corrected as follows: corrected ischemic volume value: measured ischemic area×1−{[(ipsilateral hemisphere area-contralateral hemisphere area)/contralateral hemisphere]}. The ischemic volume was expressed as a percentage of the total hemispherical volume.

[3] = system: PGC-1α and related genes; test: Gene expression in nerve cell test (Neuro-2a); format: cell-based, mouse; conditions: Neuro-2a cells, 0.1 mg/ml, 24 hours
Procedure: Neuroblasts (Neuro-2a, American Type Culture Collection, USA) were cultured in DMEM supplemented with 10% fetal bovine serum, […], and 0.1 mg/mL streptomycin in each well of 6-well plates at 37° C. in 5% CO2/95% atmospheric conditions. Neuro-2a cells correspond to the fast-growing mouse neuroblastoma cell line. After Neuro-2a cells were seeded at a density of 6000 cells per well, SL was added at a concentration of 0.1 mg/ml into the wells showing a confluency of about 5×10^6 cells/ml, followed by incubation for 24 hours under the same conditions. SL (3′-SL or 6′-SL) materials were the same as those described in Example 1. Unless otherwise stated, SL (3′-SL or 6′-SL) and the use concentrations thereof are understood to be the same as those described in Example 1. The negative control group was treated with physiological saline with 1/1000 of the volume of the medium. The cells treated with each sample were incubated at 37° C. for 24 hours, and then washed twice with cool saline solution, and RNA was extracted using TRIzol agent (Invitrogen). The expression patterns of PGC-1α and related genes were measured by using pre-designed primers and probes (Applied Biosystems; PGC-1α, Mm00447181_m1, GAPDH, and Mm99999915_q1) for the synthesized cDNA and analysis targets (Fndc5, PGC-1α, Erra, UCP1, BDNF, SOD2, and GPX1). […]

[4] = system: mouse aortic smooth muscle cells (MASMs); test: Intracellular H2O2 (ROS values, H2DCFDA) in MASMs of aging stimulation model mice; format: cell-based; conditions: MASMs from aging stimulation model mice; SL added to culture liquid
Procedure: In addition, for cell-level tests, mouse aortic smooth muscle cells (MASMs) were isolated from the control group fed with a high-fat diet (Rodent Diet with 60 kcal % fat) without SL administration (Griendling et al., 1991), and the SL (3′-SL & 6′-SL) compositions were added to the culture liquid, followed by incubation. For intracellular H2O2 measurement (ROS values), the cells were cultured in 12-well culture plates immersed in 0.1% bovin calf serum. The intracellular ROS values were measured using H2DCFDA. For assay, the cells were cultured together with H2DCFDA in HBSS buffer for 30 minutes. The cells were trypsinized, washed, and lysed in HBSS. The fluorescence values were measured immediately by a CytoFluor plate reader (FIG. 17a).
In FIGS. 17a and 17b, MASMs were extracted from the aging stimulation model mouse control group, and the SL (3′-SL & 6′-SL) compositions were added to the culture liquid to conduct comparison.
FIGS. 17a and 17b show the measurement results of intercellular H2O2 (ROS values) (FIG. 17a) and the measurement results of mitochondrial superoxide production (FIG. 17b).

## CC(=O)N[C@H]1[C@H]([C@H](O)[C@H](O)CO)O[C@@](O[C@H]2[C@@H](O)[C@@H](CO)O[C@@H](O[C@H]3[C@H](O)[C@@H](O)C(O)O[C@@H]3CO)[C@@H]2O)(C(=O)O)C[C@@H]1O (stereo partly drawn) [3′-SL, α-NeuNAc-(2→3)-β-D-Gal-(1→4)-D-Glc]
[1]
  mitochondrial superoxide production: inhibited the mitochondrial superoxide production
[2]; MCA occlusion models
  ischemic neuronal damage protective effects: relatively low compared with 6′-SL
[3]
  expression levels of analysis targets (Fndc5, PGC-1α, Erra, UCP1, BDNF, SOD2, GPX1) vs negative control: significant increases; also recorded: lower than that of 6′-SL
[4]
  intracellular H2O2 (ROS values): dropped the ROS values

## CC(=O)N[C@H]1[C@H]([C@H](O)[C@H](O)CO)O[C@@](OC[C@H]2O[C@@H](O[C@H]3[C@H](O)[C@@H](O)[C@H](O)O[C@@H]3CO)[C@H](O)[C@@H](O)[C@H]2O)(C(=O)O)C[C@@H]1O [6′-SL, α-NeuNAc-(2→6)-β-D-Gal-(1→4)-D-Glc]
[1]
  mitochondrial superoxide production: inhibited the mitochondrial superoxide production
[2]; all models, 24 hours after ischemic induction
  reduction of ischemic volume: about 50%
[2]; local cerebellar permanent ischemia models
  reduction of ischemic volume: 50%
[2]; local cerebellar temporal ischemia models
  reduction of ischemic volume: 60%
[2]; local cerebral permanent occlusion models
  reduction of ischemic volume: 40%
[3]
  expression levels of analysis targets (Fndc5, PGC-1α, Erra, UCP1, BDNF, SOD2, GPX1) vs negative control: significant increases
[4]
  intracellular H2O2 (ROS values): dropped the ROS values
